Reference: publication PMC8000227 (Viruses, 2021)
Where “and” joins values, the source holds several entries; their conditions need not be identical. Equal values may be shown once.

Experiments:
[1] = molecular target: covalently-crosslinked hexameric CA A14C/E45C/W184A/M185A (CA121) (Human immunodeficiency virus type 1 group M subtype B, UniProt P12493, A146C/E177C/M317A/W316A); experiment: Thermal shift assay (TSA) on CA hexamer stability; assay type: binding, HIV-1; details: 20 µM compound, 7.5 µM CA121
[2] = system: HIV-1NL4-3; experiment: microbe, parasite or virus in culture; assay type: cell-based; details: TZM-GFP cells, HIV-1NL4-3 MOI 0.1, 48 h, mean ± SD; for EC50: Human immunodeficiency virus 1, read-out: EC50 (concentration of compound inhibiting HIV-1 replication by 50%)
[3] = Cytotoxicity assay (XTT) in TZM-GFP cells; assay type: cell-based; details: human, mean ± SD, read-out: CC50 (concentration of compound causing 50% cell death)
[4] = Microsomal stability, human liver microsomes; assay type: in vitro ADME; details: 0.5 mg/mL microsomal protein, NADPH, 37 °C; for half-life at 1 µM: human, liver microsomes, pH 7.4, 1 µM compound, read-out: Phase I metabolic stability t1/2, HLMs
[5] = Microsomal stability, mouse liver microsomes; assay type: in vitro ADME; details: pH 7.4, 1 µM compound, 0.5 mg/mL microsomal protein, NADPH, 37 °C, read-out: Phase I metabolic stability t1/2, MLMs
[6] = Metabolites observed in the microsomal stability assay; assay type: in vitro ADME; details: observed in liver microsomal stability assay
[7] = cited from earlier work
[8] = cited from earlier work; remark: listed apart in the source

With Cc1[nH]c2ccccc2c1CC(=O)N[C@@H](Cc1ccccc1)C(=O)N1CCc2ccccc21 [Compound 1] the “TSA ΔTm (change of CA crosslinked hexamer melting temperature vs DMSO)” value [1] was −0.5 °C, the EC50 [2] was greater than 20 µM and the CC50 at 72 h [3] was greater than 100 µM.

With O=C(Cc1c[nH]c2ccccc12)N[C@@H](Cc1ccccc1)C(=O)N1CCc2ccccc21 [Compound 2] the “TSA ΔTm (change of CA crosslinked hexamer melting temperature vs DMSO)” value [1] was −1.0 °C, the EC50 [2] was greater than 20 µM and the CC50 at 72 h [3] was greater than 100 µM.

With O=C(Cc1c[nH]c2ccccc12)N[C@@H](Cc1ccccc1)C(=O)N1CCCc2ccccc21 [Compound 3] the “TSA ΔTm (change of CA crosslinked hexamer melting temperature vs DMSO)” value [1] was 1.8 ± 1.2 °C, the EC50 [2] was greater than 20 µM and the CC50 at 72 h [3] was greater than 50 µM.

In the case of Cc1[nH]c2ccccc2c1CC(=O)N[C@H](Cc1ccccc1)c1ncccc1-c1ccccc1 [Compound 4], the EC50 [2] is reported as greater than 20 µM, the “EC50 (concentration of compound inhibiting HIV-1 replication by 50%)” value [2] is reported as “completely inactive” and the CC50 at 72 h [3] is reported as less than 50 µM.

In the case of O=C(Cn1ncc2ccccc21)N[C@H](Cc1ccccc1)c1ncccc1-c1ccccc1 [Compound 5], the “TSA ΔTm (change of CA crosslinked hexamer melting temperature vs DMSO)” value [1] is reported as 0.1 ± 0.07 °C, the EC50 [2] is reported as greater than 20 µM and the CC50 at 72 h [3] is reported as less than 50 µM.

In the case of O=C(Cn1cccn1)N[C@H](Cc1ccccc1)c1ncccc1-c1ccccc1 [Compound 6], the “TSA ΔTm (change of CA crosslinked hexamer melting temperature vs DMSO)” value [1] is reported as 0.3 ± 0.1 °C, the EC50 [2] is reported as greater than 15 µM and the CC50 at 72 h [3] is reported as greater than 50 µM.

For O=C(Cn1ncc2ccccc21)N[C@H](Cc1ccccc1)c1ncccc1-c1cccc2cn[nH]c12 [Compound 7], the “TSA ΔTm (change of CA crosslinked hexamer melting temperature vs DMSO)” value [1] was 0 ± 0 °C, the EC50 [2] was greater than 20 µM and the CC50 at 72 h [3] was greater than 50 µM.

For O=C(Cn1cccn1)N[C@H](Cc1ccccc1)c1ncccc1-c1cccc2cn[nH]c12 [Compound 8], the “TSA ΔTm (change of CA crosslinked hexamer melting temperature vs DMSO)” value [1] was 0.1 ± 0.1 °C, the EC50 [2] was greater than 20 µM and the CC50 at 72 h [3] was greater than 50 µM.

With Cc1[nH]c2ccccc2c1CC(=O)N[C@@H](Cc1ccccc1)c1ncccc1-c1ccccc1 [Compound 9] the “TSA ΔTm (change of CA crosslinked hexamer melting temperature vs DMSO)” value [1] was 4.5 °C and 4.5 ± 0.0 °C, the EC50 [2] was 2.6 ± 0.4 µM and the CC50 at 72 h [3] was less than 50 µM. It also gave a half-life at 1 µM [4] of 1.2 ± 0.04 min and a half-life at 1 µM [5] of 1 ± 0.01 min.

For O=C(Cn1ncc2ccccc21)N[C@@H](Cc1ccccc1)c1ncccc1-c1ccccc1 [Compound 10, (S)-2-(1H-indazol-1-yl)-N-(2-phenyl-1-(3-phenylpyridin-2-yl)ethyl)acetamide], the EC50 [2] was 8.8 ± 0.4 µM, the “EC50 (concentration of compound inhibiting HIV-1 replication by 50%)” value [2] was “low micromolar” and the CC50 at 72 h [3] was less than 50 µM.

In the case of O=C(Cn1cccn1)N[C@@H](Cc1ccccc1)c1ncccc1-c1ccccc1 [Compound 11, (S)-N-(2-phenyl-1-(3-phenylpyridin-2-yl)ethyl)-2-(1H-pyrazol-1-yl)acetamide], the EC50 [2] is reported as 5.1 ± 0.7 µM, the “EC50 (concentration of compound inhibiting HIV-1 replication by 50%)” value [2] is reported as “low micromolar” and the CC50 at 72 h [3] is reported as greater than 50 µM.

With Cc1[nH]c2ccccc2c1CC(=O)N[C@@H](Cc1ccccc1)c1ncccc1-c1cccc(C#N)c1 [Compound 12] the “TSA ΔTm (change of CA crosslinked hexamer melting temperature vs DMSO)” value [1] was −0.2 ± 0.07 °C, the EC50 [2] was greater than 20 µM and the CC50 at 72 h [3] was greater than 50 µM.

For O=C(Cc1c[nH]c2ccccc12)N[C@@H](Cc1ccccc1)c1ncccc1-c1ccc(Cl)cc1 [Compound 13], the “TSA ΔTm (change of CA crosslinked hexamer melting temperature vs DMSO)” value [1] was 7.7 ± 0.2 °C, the EC50 [2] was 0.79 ± 0.25 µM and the CC50 at 72 h [3] was 22 ± 2 µM.

With COc1ccc2[nH]cc(CC(=O)N[C@@H](Cc3ccccc3)c3ncccc3-c3ccc(Cl)cc3)c2c1 [Compound 14] the “TSA ΔTm (change of CA crosslinked hexamer melting temperature vs DMSO)” value [1] was 7.8 ± 0.3 °C, the EC50 [2] was 1.4 ± 0.7 µM and the CC50 at 72 h [3] was 39 ± 0.2 µM. The half-life at 1 µM [4] was 1.7 ± 0.02 min, the half-life at 1 µM [5] was 0.9 ± 0.004 min and the “Metabolite (s)” value [6] was 15.

With O=C(Cc1c[nH]c2ccc(O)cc12)N[C@@H](Cc1ccccc1)c1ncccc1-c1ccc(Cl)cc1 [Compound 15] the “TSA ΔTm (change of CA crosslinked hexamer melting temperature vs DMSO)” value [1] was 8.7 °C and 8.7 ± 0.3 °C, the EC50 [2] was 0.31 ± 0.07 µM and the CC50 at 72 h [3] was 44 ± 1 µM. For the same compound, the “Phase I metabolic stability t1/2, HLMs” value ([4]; 1 µM compound) was 27.2 ± 0.5 min, the half-life at 1 µM [4] was 27 min and the half-life at 1 µM [5] was 3.1 ± 0.3 min.

In the case of CCn1cc(CC(=O)N[C@@H](Cc2ccccc2)c2ncccc2-c2ccc(Cl)cc2)c2ccccc21 [Compound 16], the “TSA ΔTm (change of CA crosslinked hexamer melting temperature vs DMSO)” value [1] is reported as 6.6 ± 0.2 °C, the EC50 [2] is reported as 2.7 ± 0.2 µM and the CC50 at 72 h [3] is reported as 41 ± 0.1 µM. The half-life at 1 µM [4] was 1.4 ± 0.02 min, the half-life at 1 µM [5] was 1.4 ± 0.02 min and the “Metabolite (s)” value [6] was 15.

For CCn1cc(CC(=O)N[C@@H](Cc2ccccc2)c2ncccc2-c2ccc(Cl)cc2)c2cc(OC)ccc21 [Compound 17], the “TSA ΔTm (change of CA crosslinked hexamer melting temperature vs DMSO)” value [1] was 5.9 ± 0.2 °C, the EC50 [2] was 3.6 ± 0.2 µM and the CC50 at 72 h [3] was 48 ± 6 µM. The half-life at 1 µM [4] was 1.3 ± 0.01 min, the half-life at 1 µM [5] was 1.3 ± 0.005 min and the “Metabolite (s)” value [6] was 15 and 14.

For COc1ccc2[nH]cc(CC(=O)N[C@@H](Cc3ccccc3)c3ncccc3-c3ccc(Br)cc3)c2c1 [Compound 18], the “TSA ΔTm (change of CA crosslinked hexamer melting temperature vs DMSO)” value [1] was 6.3 ± 0.6 °C, the EC50 [2] was 2.1 ± 0.8 µM and the CC50 at 72 h [3] was 40 ± 4 µM.

With CCn1cc(CC(=O)N[C@@H](Cc2ccccc2)c2ncccc2-c2ccc(Br)cc2)c2ccccc21 [Compound 19] the “TSA ΔTm (change of CA crosslinked hexamer melting temperature vs DMSO)” value [1] was 6.3 ± 0.1 °C, the EC50 [2] was 3.2 ± 0.3 µM and the CC50 at 72 h [3] was 41 ± 2 µM.

For Cc1[nH]c2ccccc2c1CC(=O)N[C@@H](Cc1ccccc1)c1nccn1-c1ccccc1 [Compound 20], the “TSA ΔTm (change of CA crosslinked hexamer melting temperature vs DMSO)” value [1] was 3.9 °C and 3.9 ± 0.4 °C, the EC50 [2] was 3.7 ± 0.8 µM and the CC50 at 72 h [3] was greater than 50 µM. It also gave a half-life at 1 µM [4] of 0.9 ± 0.004 min and a half-life at 1 µM [5] of 0.7 ± 0.01 min.

In the case of Cc1[nH]c2ccccc2c1CC(=O)N[C@@H](Cc1ccccc1)c1nccn1-c1ccc(C#N)cc1 [Compound 21], the “TSA ΔTm (change of CA crosslinked hexamer melting temperature vs DMSO)” value [1] is reported as 2.2 ± 0.0 °C, the EC50 [2] is reported as 6.6 ± 0.4 µM and the CC50 at 72 h [3] is reported as greater than 50 µM.

In the case of Cc1[nH]c2ccccc2c1CC(=O)N[C@@H](Cc1ccccc1)c1nccn1-c1ccc(-c2nnn[nH]2)cc1 [Compound 22], the “TSA ΔTm (change of CA crosslinked hexamer melting temperature vs DMSO)” value [1] is reported as −0.3 ± 0.1 °C, the EC50 [2] is reported as greater than 20 µM and the “EC50 (concentration of compound inhibiting HIV-1 replication by 50%)” value [2] is reported as “no antiviral activity”. The CC50 at 72 h [3] was greater than 50 µM, the half-life at 1 µM [4] was 1.3 ± 0.01 min and the half-life at 1 µM [5] was 0.9 ± 0.01 min.

For COc1ccc2[nH]cc(CC(=O)N[C@@H](Cc3ccccc3)c3nccn3-c3ccc(Cl)cc3)c2c1 [Compound 23], the “TSA ΔTm (change of CA crosslinked hexamer melting temperature vs DMSO)” value [1] was 4.0 ± 0.3 °C, the EC50 [2] was 3.3 ± 0.03 µM and the CC50 at 72 h [3] was 93 ± 2 µM.

With COc1ccc2[nH]cc(CC(=O)N[C@@H](Cc3ccccc3)c3nccn3-c3ccc(Br)cc3)c2c1 [Compound 24] the “TSA ΔTm (change of CA crosslinked hexamer melting temperature vs DMSO)” value [1] was 2.8 ± 0.3 °C, the EC50 [2] was 3.5 ± 0.3 µM and the CC50 at 72 h [3] was greater than 100 µM.

With COc1ccc2[nH]cc(CC(=O)N[C@@H](Cc3ccccc3)c3nccn3-c3ccc(I)cc3)c2c1 [Compound 25] the “TSA ΔTm (change of CA crosslinked hexamer melting temperature vs DMSO)” value [1] was 2.7 ± 0.1 °C, the EC50 [2] was 3.3 ± 0.2 µM and the CC50 at 72 h [3] was greater than 100 µM.

For Cc1[nH]c2ccccc2c1CC(=O)N[C@@H](Cc1ccccc1)C(=O)N(C)c1ccccc1 [PF74, reference compound], the “TSA ΔTm (change of CA crosslinked hexamer melting temperature vs DMSO)” value [1] is listed as 6.9 °C and 6.9 ± 0.5 °C, the EC50 [2] is listed as 0.7 ± 0.07 µM and the “half-life (t1/2) in human liver microsomes (HLMs)” value [7] is listed as “less than 1 min”. For the same compound, the “half-life (t1/2) in mouse liver microsomes (MLMs)” value [8] was “less than 1 min”.
